Reference: patent US8173133B2, “Acyl pseudodipeptides which carry a functionalized auxiliary arm” (OM Pharma, priority 1999, dated 2012)
Values joined by “and” are separate entries in the source; they are usually repeats but may differ in a detail not shown here. Equal entries are not always repeated.

Legend:
MxA protein = MxA protein induction in dendritic cells (Western blot); assay type: cell-based, human; details: 1 μg/ml; after 24 hr and 48 hours; FIGS. 77, 78
Protocol: The ability of products of the invention to induce production of antiviral MxA protein by predendritic cells has been assessed. MxA production by cells was measured after an SDS-PAGE electrophoretic separation by a Western Blot assay
Extraction and analysis of protein was conducted as follows: cells were harvested, then washed 3 times with PBS (phosphate buffered saline) and lyzed with a 100 Mm Tris-HCl buffer, 150 mM NaCl, 5 mM EDTA, 1% Triton-100 containing 1 mM PMSF (phenylmethylsulphonyl fluoride) and 1 μ/ml of pepstatin as protease inhibitors. Lysis was carried out at a density of 10^6 cells for 100 μl of (5×) buffer containing 60 mM Tris-HCl (pH 6.8), 10% glycerol, 2% SDS, 14.4 mM 2-mercaptoethanol and 0.1% bromophenol). Samples were heated up to 95° C. for 5 min. in sealed Eppendorf tubes. Electrophoresis was performed on a 10 cm×10 cm 12% acrylamide minigel by running a sample having the same number of cells. Migration was effected with the following buffer: 25 mM Tris, 192 mM glycine, 0.1% SDS, pH 8.3. […]
Non specific bonding sites on the membrane were blocked with 5% skimmed milk in TBS (10 mM Tris-HCl, 150 Mm NaCl, pH 7.4) and allowing to stand for 1 hour at room temperature. […] In this system, HRP catalyzes a luminol-mediated chemiluminescent reaction which can be detected on a photographic film. […]

K562 cells = assay: activation of NK cell cytotoxicity against K562 target cells (LDH release); assay type: cell-based, human
Protocol: PBMC were recovered from buffy coats according to the procedure previously described in example 4.6. […] Cells were incubated under such conditions for 24 hours. K562 cells (human leukemia cell line, ATCC #CCL 243, 20110-2209 Manassas (Va.), U.S.A.) were maintained in culture using RPMI medium containing 10% FCS and subjected to 2 passages per week.
In order to make cytotoxicity measurement, PBMC and K562 cells were washed twice in HBSS and resuspended in Phenol Red-free RPMI medium containing 5% FCS. PBMC were divided into a round bottom 96-well plate so as to achieve a PBMC/target ratio of 20/1, 10/1 and 5/1 in 50 μl volume. 5000 K562 cells (target) were added in each well using 50 μl of Phenol Red-free RPMI. Final volume was 100 μl. The plate was centrifuged to promote contact then incubated at 37° C. for 4 hours.
Cytotoxicity was assayed using a non radioactive CytoTox 96 kit based on measuring LDH release during cell lysis (kit #G1780, batch #124100, Promega, Madison, Wis.) according to the supplier's instructions.
The percentage of cytotoxicity was calculated according to the following equation: […]

[1] = pyrogenicity in the rabbit model; assay type: in vivo, New Zealand white rabbits; details: for response in ° C. average (individual values): 3 rabbits
Protocol: 15 New Zealand white rabbits are divided into the following groups: • Group 1: 1.0 mg/kg • Group 2: 0.1 mg/kg • Group 3: 0.01 mg/kg • Group 4: 0.001 mg/kg • Group 5: water for injection
On the day of testing, rabbits are tightly held and weighed in boxes designed for this purpose. Temperature probes are inserted in the rectum are
1 hour after probe insertion, temperatures (preinjection) are recorded for 90 minutes and the mean value is calculated.
Each rabbit is then administered an i.v. injection of product or control (sterile water in 0.9% NaCl) via the marginal (lateral) ear vein. Temperature is measured at 30 minute intervals for 3 hours. Difference between the preinjection average temperature and maximum temperature is calculated and reported.
If the result obtained lies in-between, the test is repeated with 3 more rabbits.

SMILES | production of MxA protein (MxA protein) | NK activity level (K562 cells; 1 μg/ml) | % cytotoxicity (K562 cells; Ratio PBMC:K562 5.1) [%] | Optical density at 490 nm, K562 + PBMC (K562 cells; Ratio PBMC:K562 5.1) | Optical density at 490 nm, PBMC alone (K562 cells; Ratio PBMC:K562 5.1) | % cytotoxicity (K562 cells; Ratio PBMC:K562 10.1) [%] | Optical density at 490 nm, K562 + PBMC (K562 cells; Ratio PBMC:K562 10.1) | Optical density at 490 nm, PBMC alone (K562 cells; Ratio PBMC:K562 10.1) | % cytotoxicity (K562 cells; Ratio PBMC:K562 20.1) [%] | Optical density at 490 nm, K562 + PBMC (K562 cells; Ratio PBMC:K562 20.1) | Optical density at 490 nm, PBMC alone (K562 cells; Ratio PBMC:K562 20.1, stimulus 24 hours) | pyrogenicity Results ([1]; 0.001 mg/Kg i.v.) | response in ° C. average (individual values) ([1]; 0.001 mg/Kg i.v.) | pyrogenicity Results ([1]; 0.01 mg/Kg i.v.) | response in ° C. average (individual values) ([1]; 0.01 mg/Kg i.v.) | pyrogenicity Results ([1]; 0.1 mg/Kg i.v.) | response in ° C. average (individual values) ([1]; 0.1 mg/Kg i.v.) | pyrogenicity Results ([1]; 1 mg/Kg i.v.) | response in ° C. average (individual values) ([1]; 1 mg/Kg i.v.)
CCCCCCCCCCCC(=O)O[C@H](CCCCCCCCCCC)CC(=O)NC(CCOP(=O)(O)O)C(=O)NCCCC(COC(=O)CCCCC(O)CO)NC(=O)C[C@H](O)CCCCCCCCCCC (stereo partly drawn) [OM-197-FV6, 3-[(R)-dodecanoyloxytetradecanoylamino]-4oxo-5-aza-9-[(R)-3-hydroxytetradecanoylamino]-decan-1,10-diol 1-dihydrogenphate 10-(6,7-dihydroxyheptanoate)] | significant rise | comparable or slightly inferior to that induced by LPS | 0 | 1.4 | 0.079 | 12.9 | 1.65 | 0.087 | 38.8 | 2.1 | 0.11 |  |  |  |  |  |  |  | 
CCCCCCCCCCCC(=O)O[C@H](CCCCCCCCCCC)CC(=O)N[C@H](CC(=O)O)C(=O)NCCC[C@H](COP(=O)(O)O)NC(=O)C[C@H](O)CCCCCCCCCCC [OM-197-MC-MP, N—[(R)-3-dodecanoyloxytetradecanoyl]-D-aspartic acid, α-N-{(4R)-5-dihydroxyphosphoryloxy-4-[(R)-3-hydroxytetradecanoyl-amino]pentyl}amide] |  |  |  |  |  |  |  |  |  |  |  | non pyrogenic | 0.35 (0.10, 0.05, 0.20) ° C. and 0.25 (0.00, 0.10, 0.15) ° C. | non pyrogenic | 0.65 (0.00, 0.45, 0.20) ° C. and 0.35 (0.20, 0.15, 0.00) ° C. | pyrogenic | 2.00 (1.45, 0.05, 0.50) ° C. and 2.85 (1.10, 1.20, 0.55) ° C. | pyrogenic | 3.40 (1.50, 0.60, 1.30) ° C. and 3.25 (1.25, 1.45, 0.55) ° C.
